Data: publication PMC5384001 (Scientific Reports, 2017)

Legend:
[1] = molecular target: T1, GluD2-Lc-(HS2)GluN1 (Rattus norvegicus, UniProt Q63226, A654T/A766F/D767R/N763E/R768S/T764L/V761T/V765F); assay: Two-electrode voltage clamp in Xenopus oocytes, inhibition of spontaneous currents; assay type: cell-based
T1 construct: the function of full-length receptors as well, we introduced them into the GluD2 lurcher mutant (GluD2-Lc); expressed in transfected cells; host or cells: Xenopus laevis oocytes injected with cRNA
T1 sequence (Q63226 24-1007 A654T/V761T/N763E/T764L/V765F/A766F/D767R/R768S): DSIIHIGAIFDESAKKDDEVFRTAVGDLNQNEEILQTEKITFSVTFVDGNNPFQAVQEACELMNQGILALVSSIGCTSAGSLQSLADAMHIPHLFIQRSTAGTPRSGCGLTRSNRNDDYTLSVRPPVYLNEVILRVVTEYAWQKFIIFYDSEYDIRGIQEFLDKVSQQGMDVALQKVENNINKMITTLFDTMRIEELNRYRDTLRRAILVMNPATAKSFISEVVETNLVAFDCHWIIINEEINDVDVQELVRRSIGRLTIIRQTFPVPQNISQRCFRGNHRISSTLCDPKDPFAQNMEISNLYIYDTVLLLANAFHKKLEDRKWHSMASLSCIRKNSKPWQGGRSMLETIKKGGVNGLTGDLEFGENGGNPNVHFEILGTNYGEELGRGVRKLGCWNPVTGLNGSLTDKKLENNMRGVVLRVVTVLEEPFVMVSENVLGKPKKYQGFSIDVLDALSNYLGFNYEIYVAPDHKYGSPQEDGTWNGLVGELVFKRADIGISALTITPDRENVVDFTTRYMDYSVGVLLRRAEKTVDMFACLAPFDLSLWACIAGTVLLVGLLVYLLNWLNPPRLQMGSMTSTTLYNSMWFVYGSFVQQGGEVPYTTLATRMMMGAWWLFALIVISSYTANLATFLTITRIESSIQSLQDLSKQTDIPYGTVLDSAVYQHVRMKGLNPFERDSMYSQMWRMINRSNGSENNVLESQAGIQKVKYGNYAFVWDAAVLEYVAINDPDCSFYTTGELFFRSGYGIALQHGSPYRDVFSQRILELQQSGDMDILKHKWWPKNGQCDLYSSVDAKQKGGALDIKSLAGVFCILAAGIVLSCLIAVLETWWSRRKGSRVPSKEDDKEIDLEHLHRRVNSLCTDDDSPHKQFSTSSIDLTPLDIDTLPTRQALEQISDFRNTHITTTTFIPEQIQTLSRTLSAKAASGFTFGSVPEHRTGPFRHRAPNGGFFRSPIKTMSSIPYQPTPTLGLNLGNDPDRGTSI
Source text: All cDNAs for expression in Xenopus oocytes were cloned into the vector pSGEM[30]. Point mutants of GluD2-Lc were constructed by overlap extension PCR with mutagenic oligonucleotide primers. The GluD2-Lc-(H)GluN1 chimera was constructed by transferring the S1- and S2-encoding sequences from GluD2-LBD-(H)GluN1 to GluD2-Lc via overlap extension PCR using tail primers. The S1 and S2 sequences were transferred separately, yielding GluD2-Lc-(HS1)GluN1 and GluD2-Lc-(HS2)GluN1 constructs. GluD2-Lc-(H)GluN1 was then produced from these by another overlap extension PCR. Complementary RNA (cRNA) for injection into oocytes was synthesised from 1 μg of linearised template DNA with the mMESSAGE mMACHINE in vitro transcription kit (Ambion, Austin, TX, USA).
Oocytes were obtained by surgically removing parts of the ovaries from Xenopus laevis (Nasco, Fort Atkinson, WI, USA) anaesthetised with 1.5 g/L 3-aminobenzoic acid ethylester (Sigma, Taufkirchen, Germany). The ovary clippings were digested with 784 U/mL (4 mg/mL) collagenase type I (Worthington, Lakewood, NJ, USA) in Ca^2+-free Barth’s solution (88 mM NaCl, 1.1 mM KCl, 2.4 mM NaHCO3, 0.8 mM MgSO4, 15 mM HEPES-NaOH, pH 7.6) with gentle agitation for 1.5–2 h at 20 °C to remove the follicular cell layer. After stopping the collagenase digestion by washing with Barth’s solution (88 mM NaCl, 1.1 mM KCl, 2.4 mM NaHCO3, 0.3 mM Ca(NO3)2, 0.4 mM CaCl2, 0.8 mM MgSO4, 15 mM HEPES-NaOH, pH 7.6), defolliculated oocytes of stages V and VI were selected and maintained at 16 °C in Barth’s solution supplemented with 100 μg/mL gentamicin, 40 μg/mL streptomycin, and 63 μg/mL penicillin. Oocytes were injected with 11 ng cRNA (10 ng of each cRNA for co-expression of GluN1 and GluN2A) using a nanoliter injector (WPI, Sarasota, FL, USA). Four days after cRNA injection, current responses were recorded under voltage clamp at –70 mV with a Turbo Tec-10CD amplifier (npi electronic, Tamm, Germany) controlled by Patchmaster software (HEKA, Lambrecht, Germany). Currents were filtered with a 20 Hz low-pass filter and then digitised with a sampling rate of 50 Hz. Recording electrodes were pulled from borosilicate glass (Hilgenberg, Malsfeld, Germany) with an L/M-3P-A vertical pipette puller (List-Medical), filled with 3 M KCl, and had resistances of 0.5–5 MΩ (voltage electrode) or 0.5–1.5 MΩ (current electrode). Recordings were performed in a 50 μL chamber under constant superfusion with extracellular solution at a flow rate of 3–5 mL/min. […] Finally, Ba-NFR and then NMDGR were applied again to check for reversibility.

[2] = system: parallel fiber EPSCs; conditions: inhibitory effect on parallel fiber EPSCs; read-out: apparent EC50; cited from earlier work

In the case of N[C@H](CO)C(=O)O [D-serine], the “D-serine efficacy Mean ± SEM” value ([1]; fraction of spontaneous current inhibited by D-serine) is given as 0.9 ± 0.4%, the “sensitivity to D-serine” value ([1]; inhibition of spontaneous currents) is given as “insensitive” and the EC50 [2] is given as 147 µM.
